Values quoted from earlier work, collected in patent publication US20200197416A1, “PHARMACEUTICAL COMPOSITION COMPRISING ABIRATERONE ACETATE AND DARULOTAMIDE” (NanGenex Nanotechnology Incorporated, priority 2017, published 2020).
Read-outs that look alike come from different tables or passages of the source. Each block holds one compound with its values, some of them ahead of it.

Columns and labels:
[1] = for compound present in feces, % of the administered dose: oral 14C-abiraterone acetate
[2] = system: human plasma proteins, albumin and alpha-1 acid glycoprotein
[3] = not given; remark: listed apart in the source
[4] = target: P-glycoprotein (P-gp) (Homo sapiens, UniProt P08183)
[5] = for geometric mean Cmax,md / median tmax.md: day 7
[6] = not given; remark: listed apart in the source
[7] = system: PSA levels; conditions: early phase clinical trials, Western mCRPC patients
[8] = in vivo
[9] = system: AR; conditions: preclinical trials
[10] = system: serum testosterone and other androgens; conditions: patients, placebo-controlled phase 3 clinical trial
[11] = not given; remark: listed apart in the source
[12] = not given; remark: listed apart in the source
[13] = 1,000 mg daily, patients with metastatic CRPC
[14] = high-fat (57% fat, 825 calories) meal
[15] = low-fat meal (7% fat, 300 calories)
[16] = single dose of Abiraterone acetate, up to

Sequence of P-glycoprotein (P-gp) (P08183 whole entry): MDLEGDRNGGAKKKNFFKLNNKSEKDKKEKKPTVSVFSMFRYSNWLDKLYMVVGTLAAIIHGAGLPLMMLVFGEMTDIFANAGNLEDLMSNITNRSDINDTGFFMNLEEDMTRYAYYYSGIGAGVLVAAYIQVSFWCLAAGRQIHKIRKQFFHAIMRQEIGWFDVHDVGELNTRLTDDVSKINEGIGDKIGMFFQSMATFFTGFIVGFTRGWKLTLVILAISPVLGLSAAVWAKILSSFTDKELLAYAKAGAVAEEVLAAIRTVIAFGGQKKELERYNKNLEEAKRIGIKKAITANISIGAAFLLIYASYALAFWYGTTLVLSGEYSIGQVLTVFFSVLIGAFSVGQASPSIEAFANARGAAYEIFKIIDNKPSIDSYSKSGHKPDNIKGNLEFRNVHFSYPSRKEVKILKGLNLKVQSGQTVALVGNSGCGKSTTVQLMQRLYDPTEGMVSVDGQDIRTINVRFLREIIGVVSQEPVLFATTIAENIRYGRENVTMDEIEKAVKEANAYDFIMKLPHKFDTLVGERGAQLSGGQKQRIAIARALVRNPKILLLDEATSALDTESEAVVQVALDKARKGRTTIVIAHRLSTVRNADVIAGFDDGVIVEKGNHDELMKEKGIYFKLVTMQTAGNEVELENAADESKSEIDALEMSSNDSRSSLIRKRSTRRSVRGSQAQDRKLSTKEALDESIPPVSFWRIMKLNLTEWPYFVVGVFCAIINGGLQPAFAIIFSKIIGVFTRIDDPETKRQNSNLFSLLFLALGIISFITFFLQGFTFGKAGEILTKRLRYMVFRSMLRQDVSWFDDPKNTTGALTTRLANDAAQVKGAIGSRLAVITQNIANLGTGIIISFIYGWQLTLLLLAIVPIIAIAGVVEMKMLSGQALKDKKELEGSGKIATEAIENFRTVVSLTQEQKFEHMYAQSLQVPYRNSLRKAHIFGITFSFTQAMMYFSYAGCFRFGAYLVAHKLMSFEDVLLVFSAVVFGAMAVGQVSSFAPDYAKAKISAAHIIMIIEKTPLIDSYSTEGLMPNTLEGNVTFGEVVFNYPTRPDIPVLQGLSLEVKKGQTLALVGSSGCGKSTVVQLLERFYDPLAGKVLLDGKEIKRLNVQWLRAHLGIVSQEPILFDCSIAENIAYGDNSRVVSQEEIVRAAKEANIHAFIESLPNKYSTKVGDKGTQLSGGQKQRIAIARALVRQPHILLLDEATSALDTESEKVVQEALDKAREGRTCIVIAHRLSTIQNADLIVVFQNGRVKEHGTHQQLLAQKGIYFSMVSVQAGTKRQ

Compound: C[C@]12CC[C@H](O)CC1=CC[C@@H]1[C@@H]2CC[C@]2(C)C(c3cccnc3)=CC[C@@H]12 [Abiraterone]
compound present in feces, % of the administered dose [1]: ~22%
steady-state AUC (mean±SD) [13]: 993 ± 639 ng·h/mL
steady-state C. (mean±SD) [13]: 226 ± 178 ng/mL
increase in the mean AUC when dose doubled (dose doubled from 1,000 to 2,000 mg): 8%
apparent steady-state volume of distribution (mean±SD) (human, in vivo): 19,669±13,358 L
median time to reach maximum plasma Abiraterone concentrations (oral Abiraterone acetate, patients with metastatic CRPC): 2 h
mean terminal half-life of Abiraterone in plasma (mean±SD) (patients with metastatic CRPC): 12 ± 5 h
accumulation: steady-state AUC compared to a single 1,000 mg dose (steady-state vs single 1,000 mg dose of Abiraterone acetate): 2 fold
bound to human plasma proteins [2]: > 99%
Abiraterone AUC0-28, fold higher with food [3, 14]: ~10 fold
Abiraterone Cmax, fold higher with food [3, 14]: approximately 17 fold
Abiraterone AUC0-28, fold higher with food [3, 15]: ~5 fold
Abiraterone Cmax, fold higher with food [3, 15]: approximately 7 fold
Abiraterone AUC0-28 (exposure) increase (food effect) [3, 16]: ≤ 10 fold
Abiraterone Cmax increase (food effect) [3, 16]: up to 17 fold
substrate of P-glycoprotein (P-gp) ([4]; in vitro, clinically relevant concentrations): not substrates

Compound: (3β)-17-(3-pyridinyl) androsta-5,16-dien-3-yl acetate [Abiraterone acetate]
radioactive dose recovered in feces ([1]; oral administration): approximately 88%
radioactive dose recovered in urine ([1]; oral administration): approximately 5%

Compound: C[C@]12CC[C@H](OS(=O)(=O)O)CC1=CC[C@@H]1[C@@H]2CC[C@]2(C)C(c3ccc[n+]([O-])c3)=CC[C@@H]12 [N-oxide Abiraterone sulphate]
share of exposure of circulating metabolite in human plasma ([1]; oral 14C-abiraterone acetate as capsules): about 43%

The next lines start with results.

Cmax,md versus Cmax after single dose under fed conditions ([5]; 300 mg): approximately 1.8 times
geometric mean AUCtau(0-12)md ([5]; 300 mg BID): 44400 ng·h/mL
mean linearity factor (RLIN) ([5]; 300 mg BID): 0.910
geometric mean Cmax,md ([5]; 300 mg BID): 4600 ng/mL
median tmax.md ([5]; 300 mg BID): 4.98 h
Cmax,md versus Cmax after single dose under fed conditions ([5]; 600 mg): ~1.7 times
geometric mean AUCtau(0-12)md ([5]; 600 mg BID): 58700 ng·h/mL
mean linearity factor (RLIN) ([5]; 600 mg BID): 0.961
geometric mean Cmax,md ([5]; 600 mg BID): 5800 ng/mL
median tmax.md ([5]; 600 mg BID): 5.48 h
increase in exposure after multiple dosing with 600 mg BID versus 300 mg BID ([5]; in vivo): 1.3 fold
Cmax after single dose under fed conditions ([6]; 300 mg single dose, fed): 2590 ng/mL
Cmax after single dose under fed conditions ([6]; 600 mg single dose, fed): 3500 ng/mL
AUC(0-t last) fed state compared with fasting state ([6]; after 300 and 600 mg): 2.5 fold
bioavailability fed versus fasting conditions ([6]; single oral dose 300 mg): 2.5 fold
bioavailability fed versus fasting conditions ([6]; single oral dose 600 mg): 2.8 fold
overall median tmax ([6]; single-dose period): 3 to 6 h
terminal half-life ([6]; single-dose period): 10 to 15 h
blood-brain barrier penetration [8]: negligible
binding affinity compared with other AR antagonists (such as bicalutamide and enzalutamide) [9]: higher binding affinity
Compound: CC(O)c1cc(C(=O)N[C@@H](C)Cn2ccc(-c3ccc(C#N)c(Cl)c3)n2)n[nH]1 (stereo partly drawn) [Darolutamide]
PSA levels [7]: significant reductions

exposure to metabolite keto-Darolutamide compared with Darolutamide ([6]; single dose 300 mg, fasting): 1.28 fold
exposure to metabolite keto-Darolutamide compared with Darolutamide ([6]; single dose 300 mg, fed): 1.33 fold
exposure to metabolite keto-Darolutamide compared with Darolutamide ([6]; single dose 600 mg, fasting): 1.44 fold
exposure to metabolite keto-Darolutamide compared with Darolutamide ([6]; single dose 600 mg, fed): 1.61 fold
Compound: CC(=O)c1cc(C(=O)N[C@@H](C)Cn2ccc(-c3ccc(C#N)c(Cl)c3)n2)[nH]n1 [keto-Darolutamide]

compound present in feces, % of the administered dose [1]: approximately 55%
Abiraterone acetate plasma concentrations (clinical studies, below detectable levels in >99% of the analyzed samples): < 0.2 ng/mL
pKa of the aromatic nitrogen [11]: 5.19
solubility in water [12]: practically insoluble
inhibition of P-gp ([4]; not told): inhibitor of P-gp
substrate of P-glycoprotein (P-gp) ([4]; not told): not substrates
Compound: CC(=O)O[C@H]1CC[C@@]2(C)C(=CC[C@@H]3[C@@H]2CC[C@]2(C)C(c4cccnc4)=CC[C@@H]32)C1 [Abiraterone acetate, (3β)-17-(3-pyridinyl) androsta-5,16-dien-3-yl acetate]
effect on serum testosterone and other androgens [10]: decreased
